# Assay results: PubChem BioAssay (NCI)
# Where “and” joins values, the source holds several entries; their conditions need not be identical. Identical values can stand only once.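 Cells were grown in 96-well plates and exposed to each compound for 48 hours at five concentrations; endpoints were interpolated linearly between bracketing concentrations, or set to the highest concentration if not reached. GI50 is the concentration that inhibits growth by half. TGI denotes the concentration required for complete inhibition of growth.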
# What was measured:
# Test in all cases: DTP human tumour cell line panel, 48 h
# [1] = system: NCI-H23 lung
# [2] = system: SNB-75 CNS
# [3] = system: RPMI-8226 leukemia
# [4] = system: OVCAR-4 ovarian
# [5] = system: KM12 colon
# [6] = system: MALME-3M melanoma
# [7] = system: HOP-92 NSCLC
# [8] = system: MDA-N
# [9] = system: MCF7 breast
# [10] = system: COLO 205 colon
# [11] = system: A549 NSCLC
# [12] = system: NCI-H522 lung
# [13] = system: CAKI-1 renal
# [14] = system: RXF 393 renal
# [15] = system: K-562 leukemia
# [16] = system: NCI-H226 lung
# [17] = system: SK-MEL-5 melanoma
# [18] = system: HCT-116 colon
# [19] = system: OVCAR-3 ovarian
# [20] = system: U251 CNS
# [21] = system: NCI-H460 lung
# [22] = system: TK-10 renal
# [23] = system: OVCAR-8 ovarian
# [24] = system: SN12C renal
# [25] = system: MOLT-4 leukemia
# [26] = system: HL-60(TB) leukemia
# [27] = system: UO-31 renal
# [28] = system: SR leukemia
# [29] = system: HOP-62 NSCLC
# [30] = system: IGROV1 ovarian
# [31] = system: NCI/ADR-RES ovarian
# [32] = system: HCC-2998 colon
# [33] = system: M14 melanoma
# [34] = system: MDA-MB-435
# [35] = system: LOX IMVI melanoma
# [36] = system: SW-620 colon
# [37] = system: PC-3 prostate
# [38] = system: BT-549 breast
# [39] = system: 786-0 renal
# [40] = system: HCT-15 colon
# [41] = system: HT29 colon
# [42] = system: SK-MEL-28 melanoma
# [43] = system: ACHN renal
# [44] = system: SF-539 CNS
# [45] = system: T-47D breast
# [46] = system: EKVX NSCLC
# [47] = system: DU-145 prostate
# [48] = system: SF-295 CNS
# [49] = system: SNB-19 CNS
# [50] = system: SK-OV-3 ovarian
# [51] = system: HS 578T breast
# [52] = system: OVCAR-5 ovarian
# [53] = system: SF-268 CNS
# [54] = system: MDA-MB-231 breast
# [55] = system: SK-MEL-2 melanoma
# [56] = system: UACC-62 melanoma
# [57] = system: UACC-257 melanoma
# [58] = system: CCRF-CEM leukemia
# [59] = system: A498 renal
smiles,measurement,setting,value
CC(=O)OCC1OC(n2c(-c3ccc(Cl)cc3)cc(-c3ccccc3)c(C#N)c2=S)C(OC(C)=O)C(OC(C)=O)C1OC(C)=O (stereo not given),TGI,[1],27.2 µM
same,TGI,[2],20.8 µM
same,TGI,[3],43.3 µM
same,TGI,[4],3.3 µM
same,TGI,[5],48.7 µM
same,TGI,[6],7.71 µM
same,TGI,[7],40.8 µM
same,TGI,[8],24.3 µM
same,TGI,[9],67.8 µM
same,TGI,[10],33 µM
same,TGI,[11],27.9 µM
same,TGI,[12],60.1 µM
same,TGI,[13],26.9 µM
same,TGI,[14],26 µM
same,TGI,[15],> 100 µM
same,TGI,[16],12 µM
same,TGI,[17],23.5 µM
same,TGI,[18],18.8 µM
same,TGI,[19],22.4 µM
same,TGI,[20],20.6 µM
same,TGI,[21],17.9 µM
same,TGI,[22],42.2 µM
same,TGI,[23],23 µM
same,TGI,[24],26.3 µM
same,TGI,[25],85.9 µM
same,TGI,[26],17.4 µM
same,TGI,[27],40.1 µM
same,TGI,[28],53 µM
same,TGI,[29],20.5 µM
same,TGI,[30],25.8 µM
same,TGI,[31],21 µM
same,TGI,[32],34.7 µM
same,TGI,[33],16.4 µM
same,TGI,[34],25.2 µM
same,TGI,[35],17.8 µM
same,TGI,[36],14.7 µM
same,TGI,[37],23.3 µM
same,TGI,[38],17.8 µM
same,TGI,[39],24.6 µM
same,TGI,[40],> 100 µM
same,TGI,[41],21.1 µM
same,TGI,[42],23.4 µM
same,TGI,[43],26.2 µM
same,TGI,[44],14.6 µM
same,TGI,[45],39.5 µM
same,TGI,[46],31.9 µM
same,TGI,[47],35.6 µM
same,TGI,[48],23.6 µM
same,TGI,[49],20.9 µM
same,TGI,[50],25.2 µM
same,TGI,[51],10.5 µM
same,TGI,[52],35 µM
same,TGI,[53],25.6 µM
same,TGI,[54],15.7 µM
COC1OC(COC(=O)NCCCCC(=O)C(F)(F)C(F)(F)C(F)(F)C(F)(F)C(F)(F)C(F)(F)C(F)(F)F)C(O)C(O)C1O (stereo not given),TGI,[1],40.4 µM and 34.1 µM
same,TGI,[2],29.3 µM and 27.6 µM
same,TGI,[3],> 100 µM
same,TGI,[4],35.3 µM and 28.5 µM
same,TGI,[5],37.1 µM and 48.7 µM
same,TGI,[55],40.1 µM and 40.3 µM
same,TGI,[6],44.3 µM and 47.3 µM
same,GI50,[7],14.2 µM and 2.27 µM
same,TGI,[7],28.6 µM and 15.6 µM
same,TGI,[8],51.9 µM and 61.3 µM
same,TGI,[9],33.6 µM and 33.4 µM
same,TGI,[10],45 µM and 39.7 µM
same,TGI,[11],36.1 µM and 31 µM
same,TGI,[13],32.9 µM and 30 µM
same,TGI,[14],26.4 µM and 30.2 µM
same,TGI,[15],36.8 µM and 37.5 µM
same,TGI,[17],25.8 µM and 24.3 µM
same,TGI,[18],39.4 µM and 31.9 µM
same,TGI,[19],29.2 µM and 28.1 µM
same,TGI,[20],39.7 µM and 24.6 µM
same,TGI,[21],36.3 µM and 49.5 µM
same,TGI,[22],30 µM and 32 µM
same,TGI,[24],40.2 µM and 43.5 µM
same,GI50,[25],12.5 µM and 4.13 µM
same,TGI,[25],31.7 µM and 23.1 µM
same,GI50,[26],24.9 µM
same,TGI,[26],> 100 µM
same,TGI,[27],30.5 µM and 30.8 µM
same,TGI,[28],> 100 µM
same,TGI,[29],32.1 µM and 30.1 µM
same,TGI,[30],30.9 µM and 27.4 µM
same,TGI,[56],26.6 µM and 27.5 µM
same,TGI,[31],61.8 µM and > 100 µM
same,TGI,[32],36.5 µM and 37.5 µM
same,TGI,[33],29.7 µM and 29.4 µM
same,TGI,[34],32.2 µM and 31.7 µM
same,TGI,[35],30.2 µM and 27.9 µM
same,TGI,[36],31.9 µM and 31.7 µM
same,TGI,[37],25.9 µM and 26.5 µM
same,TGI,[38],31.4 µM and 31.9 µM
same,TGI,[39],31.4 µM and 30.1 µM
same,TGI,[57],36.2 µM and 37.7 µM
same,TGI,[40],33.1 µM and 38.3 µM
same,TGI,[41],27.4 µM and 35 µM
same,TGI,[42],31 µM and 30.5 µM
same,TGI,[43],31.8 µM and 29.9 µM
same,TGI,[44],29.5 µM and 34.2 µM
same,TGI,[45],39.1 µM and 32.5 µM
same,GI50,[47],34.8 µM and 4.86 µM
same,TGI,[47],> 100 µM and 29.9 µM
same,TGI,[48],44.8 µM and 44.2 µM
same,GI50,[58],16.4 µM and 7.62 µM
same,TGI,[58],44 µM and 37.4 µM
same,TGI,[49],34 µM and 34.1 µM
same,TGI,[50],29.2 µM and 27.2 µM
same,TGI,[51],43.8 µM and 33.7 µM
same,TGI,[52],32.9 µM and 32.3 µM
same,TGI,[53],30.8 µM and 37.1 µM
same,TGI,[54],42.3 µM and 40.2 µM
Cc1nn(CN2CCN(C)CC2)c(=S)n1/N=C/c1ccc(-c2ccc(Cl)cc2Cl)o1,TGI,[1],> 100 µM
same,TGI,[4],> 100 µM
same,TGI,[5],> 100 µM
same,TGI,[55],> 100 µM
same,TGI,[6],> 100 µM
same,TGI,[7],> 100 µM
same,TGI,[8],> 100 µM
same,TGI,[9],> 100 µM
same,TGI,[10],> 100 µM
same,TGI,[11],> 100 µM
same,TGI,[12],> 100 µM
same,TGI,[15],> 100 µM
same,TGI,[16],95.2 µM
same,TGI,[17],> 100 µM
same,TGI,[18],> 100 µM
same,TGI,[59],56.8 µM
same,TGI,[19],> 100 µM
same,TGI,[20],> 100 µM
same,TGI,[22],> 100 µM
same,TGI,[23],> 100 µM
same,TGI,[24],> 100 µM
same,TGI,[25],98.2 µM
same,TGI,[26],> 100 µM
same,TGI,[27],> 100 µM
same,TGI,[28],> 100 µM
same,TGI,[29],> 100 µM
same,TGI,[30],> 100 µM
same,TGI,[56],> 100 µM
same,TGI,[31],> 100 µM
same,TGI,[32],> 100 µM
same,TGI,[33],> 100 µM
same,TGI,[34],> 100 µM
same,TGI,[35],> 100 µM
same,TGI,[36],> 100 µM
same,TGI,[37],> 100 µM
same,TGI,[38],> 100 µM
same,TGI,[39],> 100 µM
same,TGI,[57],> 100 µM
same,TGI,[40],> 100 µM
same,TGI,[41],> 100 µM
same,TGI,[42],> 100 µM
same,TGI,[43],> 100 µM
same,TGI,[44],> 100 µM
same,TGI,[45],> 100 µM
same,TGI,[46],88.8 µM
same,TGI,[47],> 100 µM
same,TGI,[49],> 100 µM
same,TGI,[50],> 100 µM
same,TGI,[51],> 100 µM
same,TGI,[52],> 100 µM
same,TGI,[53],> 100 µM
same,TGI,[54],> 100 µM
